The record followed here is patent US20260042772A1, “FURO PYRIMIDINE DERIVATES” (Merck Patent GmbH, priority 2022, published 2026).

Test [1] has as its system CQC sensitive strain (NF54) of P. falciparum. As to the kind of experiment: In vitro antiplasmodial activity, Assay B (as described by Vennerstrom et al. 2004). It counts as cell-based. The following applies: Plasmodium falciparum; NF54, Vennerstrom et al. method. An outline of the steps:
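NF54 P. falciparum is exposed to 10-point, 2-fold serial dilutions in complete medium starting at 3000 nM (lowest about 6 nM). Reference drugs start at 1000 ng/mL.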

For test [2], the system named is P. vivax liver-stage hypnozoites. As to the kind of experiment: In vitro P. vivax liver-stage assay in primary human hepatocytes, radical cure mode: hypnozoites. Format: cell-based. The note with it: Plasmodium vivax, Hepatocyte, infected primary human hepatocytes, read-out: Pv Hypnozoite IC50. The procedure: (§1) Compound efficacy against P. vivax liver-stage schizonts and hypnozoites is evaluated in infected primary human hepatocytes (PHHs). Compound screening is performed in 384-well plates, in a 12-point dose response, from 50 μM. All compounds are tested in radical cure mode (RCM). PHHs are seeded onto 384-well plates two days prior to P. vivax sporozoite infection. In RCM, compounds are added to the culture for three days, from day 5 post infection, in duplicate wells. Nigericin and a PI4K inhibitor (KDU691) are used as positive controls in each assay, while solvent (DMSO) without added compound serves as a negative control. Daily medium changes are performed, and the culture is fixed on day twelve post infection to ensure complete parasite clearance. Fixed cells are permeabilized and stained with an anti-UIS4 primary antibody and a fluorescent secondary antibody. Liver-stage schizonts and hypnozoites are then quantified by High Content Imaging. Roth, A., et al. A comprehensive model for assessment of liver stage therapies targeting Plasmodium vivax and Plasmodium falciparum. Nat. Commun. 2018, 9(1), 1837. doi.org/10.1038/s41467-018-04221-9.

For test [3], the system named is chloroquine sensitive (CQS) strain (NF54) of P. falciparum. Put plainly: In vitro antiplasmodial activity, Assay A (parasite lactate dehydrogenase assay). It counts as cell-based. The following applies: Plasmodium falciparum. The method in brief:
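Asexual erythrocytic-stage cultures of the CQ-sensitive NF54 strain tested in triplicate on two occasions. Ten 2-fold dilutions from 3000 nM down to about 6 nM (references from 1000 ng/mL). Viability read by parasite lactate dehydrogenase assay.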

Another test has as its target human PI4Kβ (HuPI4Kβ) (Homo sapiens (Human), UniProt Q9UBF8). Put plainly: HuPI4Kβ lipid kinase inhibition, ADP-Glo Kinase Assay. It counts as biochemical. The note with it: recombinant enzyme. As for the experimental part: To further test the impact of compounds according to the present invention on human PI4Kβ, HuP[…]β inhibition was tested for selected compounds and contrasted with the results for inhibiting PfNF54 strains as described in the example above. The lipid kinase reaction is performed by incubating lipid substrate (PI:3PS or PIP2:3PS) with a recombinant enzyme and ATP, and the kinase activity is measured using the ADP-GloTM Kinase Assay. First, the kinase reaction is terminated, and any ATP remaining after the reaction is depleted, leaving only ADP. Then the Kinase Detection Reagent is added to convert ADP to ATP, which is used in a coupled luciferin/luciferase reaction. The luminescent output is measured and is correlated with kinase activity. The assays can be performed in 96- or 384-well plates and can be used for enzyme characterization, inhibitor screening or compound profiling. Results measuring the effect of compounds on HuP[…]β are reported in table 2 in nM (IC50) describing the concentration necessary to inhibit 50% of the enzyme's activity (HuP[…]β IC50 (nM)).
A general note: In ADP-Glo the light output rises with the ADP produced.

For test [4], the system named is P. vivax liver-stage schizonts. Put plainly: In vitro P. vivax liver-stage assay in primary human hepatocytes, radical cure mode: schizonts. The following applies: Plasmodium vivax, Hepatocyte, infected primary human hepatocytes, read-out: Pv Schizont IC50. It counts as cell-based. As for the experimental part:
as §1

In test [5] the test system is sensitive (NF54) strains of P. falciparum. As to the kind of experiment: In vitro P. falciparum assay, modified [3H]hypoxanthine incorporation assay. It counts as cell-based. The following applies: Plasmodium falciparum, NF54 strain. From the text: Compounds according to the present invention were screened against sensitive (NF54) strains of P. falciparum in vitro using the modified [3H]hypoxanthine incorporation assay. (Vennerstrom, J. L.; Arbe-Barnes, S.; Brun, R.; Charman, S. A.; Chiu, F. C. K.; Chollet, J.; Dong, Y.; Dorn, A.; Hunziker, D.; Matile, H.; McIntosh, K.; Padmanilayam, M.; Tomas, J. S.; Scheurer, C.; Scorneaux, B.; Tang, Y.; Urwyler, H.; Wittlin, S. and Charman, W. N. Identification of an Antimalarial Synthetic Trioxolane Drug Development Candidate. Nature, 2004, 430, 900-904.).
Compound concentrations at which growth of P. falciparum was inhibited by 50% compared to untreated controls was measured in nM (IC50).
Compound concentrations at which growth of P. falciparum was inhibited by 50% compared to untreated controls was measured in nM (IC50) as described above (PfNF54 IC50 (nM)).

The mark [6] stands for this setting: [3H]hypoxanthine incorporation, read-out: In vitro P. falciparum growth inhibition IC50.
The mark [7] stands for this setting: growth inhibition, Table 2, read-out: PfNF54 IC50.

As a reminder, the IC50 is the concentration at which inhibition is half-maximal.

Read-outs that look alike come from different tables or passages of the source.

Chain of human PI4Kβ (HuPI4Kβ) (Q9UBF8 whole entry): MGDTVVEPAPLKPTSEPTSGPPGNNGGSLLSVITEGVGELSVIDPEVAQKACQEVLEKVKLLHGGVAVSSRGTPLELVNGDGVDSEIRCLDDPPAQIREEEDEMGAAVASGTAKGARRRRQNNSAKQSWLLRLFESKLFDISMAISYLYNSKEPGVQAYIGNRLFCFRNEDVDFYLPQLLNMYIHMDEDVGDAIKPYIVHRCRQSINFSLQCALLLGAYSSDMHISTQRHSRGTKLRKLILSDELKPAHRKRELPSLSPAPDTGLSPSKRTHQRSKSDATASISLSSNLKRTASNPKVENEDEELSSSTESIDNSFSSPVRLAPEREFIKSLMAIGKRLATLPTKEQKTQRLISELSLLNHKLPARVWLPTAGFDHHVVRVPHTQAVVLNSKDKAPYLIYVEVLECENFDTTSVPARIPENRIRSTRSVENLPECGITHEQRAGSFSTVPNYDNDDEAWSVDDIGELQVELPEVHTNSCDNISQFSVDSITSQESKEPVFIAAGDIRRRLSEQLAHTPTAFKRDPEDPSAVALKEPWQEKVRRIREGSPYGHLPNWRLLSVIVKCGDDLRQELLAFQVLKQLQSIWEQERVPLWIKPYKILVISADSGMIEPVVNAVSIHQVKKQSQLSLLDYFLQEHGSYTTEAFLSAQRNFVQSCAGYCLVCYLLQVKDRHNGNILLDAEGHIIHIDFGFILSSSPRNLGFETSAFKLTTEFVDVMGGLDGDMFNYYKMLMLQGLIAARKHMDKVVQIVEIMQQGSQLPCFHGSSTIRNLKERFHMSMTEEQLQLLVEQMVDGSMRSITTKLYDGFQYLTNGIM

For the compound `CC(C)(O)c1cccc(-c2ncnc3cc(-c4ccc(S(C)(=O)=O)cc4)oc23)c1F` [Compound D149, 2-(2-fluoro-3-(6-(4-(methylsulfonyl)phenyl)furo [3,2-d]pyrimidin-4-yl)phenyl)propan-2-ol], the concentration for half-maximal inhibition (IC50) in test [1] was < 15 nM; in test [2], < 15 nM; in test [3] it was < 15 nM; at human PI4Kβ (HuPI4Kβ), 100 to 500 nM; in test [4] it was < 15 nM; in test [5] (setting [6]), < 10 nM. Also, the IC50 in test [5] (setting [7]) is < 10 nM.

Regarding `CC(C)(O)c1cccc(-c2ncnc3cc(-c4ccc(C(=O)N5CCOCC5)cc4)oc23)c1F` [Compound D183, (4-(4-(2-fluoro-3-(2-hydroxypropan-2-yl)phenyl)furo[3,2-d]pyrimidin-6-yl)phenyl)(morpholino) methanone], the IC50 in test [1] was < 15 nM; in test [2], < 15 nM; in test [3], < 15 nM; at human PI4Kβ (HuPI4Kβ), 100 to 500 nM; in test [4], < 15 nM; in test [5] (setting [6]), < 10 nM. In addition, in test [5] (setting [7]), the IC50 is < 10 nM.

In the case of `CC(C)(O)c1cccc(-c2ncnc3cc(-c4ccc(S(C)(=N)=O)cc4)oc23)c1F` (stereo not shown) [Compound D203, (4-(4-(2-fluoro-3-(2-hydroxypropan-2-yl)phenyl)furo[3,2-d]pyrimidin-6-yl)phenyl)(imino)(methyl)-λ6-sulfanone], the IC50 in test [1] was < 15 nM; in test [2] it was 15 to 50 nM; in test [3], < 15 nM; in test [4] it was < 15 nM; in test [5] (setting [6]) it was < 10 nM.
